These results are taken from patent publication US7547726B2, “AI-2 compounds and analogs based on Salmonella typhimurium LsrB structure” (The Trustees of Princeton University, priority 2004, dated 2009).

The subject of assay [1] is V. harveyi strain MM32 (LuxN−, LuxS−). The assay is classed as cell-based. As to conditions: for light production: ligand approximately 0.2 nM, 8 hr of growth. As for the experimental part: (§1) V. harveyi strain MM32 (luxN::Cm, luxS::Tn5Kan) was used for bioluminescence assays. This strain was constructed by introducing luxS::Tn5Kan onto the chromosome of strain JAF305 (luxN::Cm) (Bassler et al., 1993; Freeman et al., 1999). S. typhimurium strain MET844 (rpsL, putRA::Kan-lsr-lacZYA, ΔlsrFGE::Cm, luxS::TPOP) was used for lsr-lacZ assays (Taga et al., 2003). V. harveyi was grown in borate-depleted autoinducer bioassay (AB) medium (Greenberg et al., 1979), and S. typhimurium was grown in borate-depleted Luria-Bertani (LB) medium. To remove borate, the media were filtered through a borate anion-specific resin, Amberlite IRA743 (Sigma-Aldrich). Specifically, 500 ml of medium was passed three times through 30 ml of resin and the column was regenerated between each passage according to a method described previously (Bennett et al., 1999). Following filtration, the pH of the medium was adjusted using KOH made with borate-depleted water. For all experiments involving borate-depleted reagents, only plastic supplies were used. To test the effect of boron on the bioluminescence and lsr-lacZ assays, boric acid was added to the borate-depleted media to a final concentration of 5 mM.
V. harveyi MM32 was grown 14 hr in borate-depleted AB at 30° C. with aeration and subsequently diluted 1:5,000 into fresh borate-depleted AB medium in the presence or absence of 5 mM boric acid. 10% autoinducer samples (v/v) were added to the diluted cells and light production was measured hourly in a Wallac Model 1450 Microbeta Plus liquid scintillation counter. […] Bioluminescence is reported as the light produced by the cells divided by the background obtained in medium alone.
(§2) Ligands were released from LsrB and LuxP as described above. All ligand concentrations were estimated by ^11B-NMR in NMR buffer supplemented with 5 mM boric acid; the area of the boric acid peak served as an internal concentration standard.
To directly examine the influence of borate on AI-2-dependent signaling in V. harveyi and S. typhimurium, borate-depleted medium was prepared. AI-2 responses (bioluminescence in V. harveyi, lsr operon induction in S. typhimurium) were measured both with and without added boric acid. In this experiment, V. harveyi strain, MM32 was used because this strain lacks the LuxS enzyme needed to biosynthesize DPD and thus produces no endogenous AI-2 signal. This strain also has the AI-1 pathway inactivated. Bioluminescence was measured following addition of enzymatically synthesized DPD or, alternatively, ligand released from either LsrB or LuxP.

Assay [2] relates to lsr operon in S. typhimurium strain MET844 (LuxS−). Briefly: S. typhimurium AI-2 bioassay (lsr-lacZ, β-galactosidase activity, strain MET844). As to conditions: for lsr expression (β-galactosidase activity): borate-depleted LB medium, 4 hr, approximately 10 μM DPD and LsrB ligand, 4 μM LuxP ligand. Format: cell-based. Here is the method: as §1
AI-2-dependent induction of the lsr operon in S. typhimurium was measured by determining the β-galactosidase activity of the lsr-lacZ promoter fusion in S. typhimurium strain MET844. Overnight cultures were grown in borate-depleted LB medium at 37° C. with aeration and were diluted 1:100 into fresh borate-depleted LB medium in the presence or absence of 5 mM boric acid. To the diluted cells (900 μl), 10% (v/v) autoinducer samples were added (100 μl), and cells were grown for 4 hr. Cell lysates were prepared and β-galactosidase activity was measured as described previously (Taga et al., 2003). β-galactosidase units are defined as [(OD420 min^−1×dilution factor)/OD600].
as §2

For assay [3], the target named is V. harveyi receptor LuxP (Vibrio harveyi, UniProt P54300). The settings on record: Chen et al., 2002; cited from earlier work.
Chain of V. harveyi receptor LuxP (P54300 24-365): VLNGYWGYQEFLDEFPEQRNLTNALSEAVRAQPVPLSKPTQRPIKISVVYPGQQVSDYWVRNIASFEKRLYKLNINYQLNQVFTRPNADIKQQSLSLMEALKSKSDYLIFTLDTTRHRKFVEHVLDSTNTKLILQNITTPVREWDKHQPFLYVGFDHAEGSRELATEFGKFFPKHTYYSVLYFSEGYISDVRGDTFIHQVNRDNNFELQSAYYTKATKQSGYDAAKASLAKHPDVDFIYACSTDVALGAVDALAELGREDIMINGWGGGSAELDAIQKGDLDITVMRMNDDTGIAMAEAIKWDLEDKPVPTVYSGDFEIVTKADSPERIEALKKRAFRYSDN
The test system of assay [4] is V. harveyi. The settings on record: cited from earlier work.
Assay [5] deals with S. typhimurium. As for the experimental part:
as §1

Assay [6] deals with V. harveyi. The settings on record: presence or absence of 5 mM boric acid; AB medium. As for the experimental part: as §1
Assay [7] has as its target T1, S. typhimurium receptor LsrB (Salmonella typhimurium, UniProt Q8ZKQ1).
T1 construct: The final model contains all LsrB residues present in the protein (27-340); GST (N, cleaved yes); made in house; host or cells: E. coli BL21
The assay can be described thus: X-ray crystal structure of the LsrB:ligand complex. Format: binding. The settings on record: holo-LsrB crystal, 1.3 Å resolution. The text has this: Both apo-LsrB and holo-LsrB crystallized by the hanging drop method in 0.1 M Tris-HCl (pH 8.5), 22%-25% PEG 4000 (w/v) in space group P212121. The apo-LsrB crystals initially obtained (a=38.0, b=74.0, c=116.2) were used to seed crystallization in 0.1 M Tris-HCl, pH 8.5, 18%-24% PEG 4000. Crystals were cryoprotected by brief soaks in 0.1 M Tris-HCl, pH 8.5, 20% PEG 4000, 16% (v/v) glycerol and flash frozen in liquid nitrogen. Native crystals diffracted to 1.9 Å and data were collected at 100 K using an R-AXIS-IV image plate detector mounted on a Rigaku 200HB generator. Selenomethionine LsrB crystals were grown and frozen in the same conditions as native crystals. Selenomethionine crystals diffracted to 2.1 Å resolution at NSLS beam line X25, where MAD data were collected using an ADSC Q315 CCD detector. Holo-LsrB crystals (a=37.8, b=76.6, c=109.7) were prepared by addition of approximately 0.25 mM in vitro LuxS reaction product (Schauder et aL, 2001) to the native LsrB crystallization conditions, giving a DPD:LsrB molar ratio of slightly over 1:1. […]
To identify the LsrB ligand, LsrB was crystallized in the presence of DPD and the other products generated by incubating SAH with recombinant Pfs and LuxS enzymes as previously described (Schauder et al., 2001) (FIG. 1A). The structure was determined by molecular replacement and refined to 1.3 Å resolution (Table 1). […]

[8] abbreviates: 5 mM boric acid added to borate-depleted medium.
Setting [9] is: borate-depleted AB medium plus 5 mM boric acid.

Read-outs that look alike come from different tables or passages of the source.

For `C[C@]12OC[C@H](O)[C@@]1(O)O[B-](O)(O)O2` [LuxP ligand], the light production entry in assay [1] (borate-depleted AB medium) is reported as “failed to stimulate light production”. Besides, the “lsr expression (β-galactosidase activity)” value (“lsr expression” below) in assay [2] is on record as “induces lsr expression”.
With `CC12OCC(O)C1(O)O[B-](O)(O)O2` [S-THMF-borate, α-L-glycero-1-dehydro-3-hydro-penta-2,3-diulo-2,5-furanosyl-2,3-cyclic borate], the “binding to LuxP” value in assay [3] was “binds”.
As for `N[C@@H](CCS)C(=O)O` [homocysteine], the autoinducer activity entry in assay [4] (product of the LuxS reaction) is given as “no autoinducer activity”.
Take `OB(O)O` [boric acid]: the “effect of boric acid on the ability of DPD or either receptor's ligand to activate the V. harveyi assay” value in assay [1] (setting [8]) is given as “strongly enhances”. Moreover, the “effect of boric acid on the ability of DPD or either receptor's ligand to activate the S. typhimurium assay” value in assay [2] (setting [8]) is on record as “inhibits”. Besides, the effect on growth result in assay [5] and in assay [6] was “no effect” throughout.
As for `CC(=O)C(=O)C(O)CO` (centres unmarked) [DPD, 4,5-dihydroxy-2,3-pentanedione], the light production result in assay [1] (setting [9]) was “stimulate light production”; in assay [1] (borate-depleted AB medium), “No light was produced”. The “DPD final concentration inducing a linear response in light production” value in assay [1] (in the presence of 5 mM borate, 6-8 hr incubation) was 0.1 to 1 nM. Also, the “lsr expression” value in assay [2] is recorded as “induces lsr expression”. In addition, the “bioluminescence in V. harveyi” value in assay [4] (chemically synthesized DPD, only in the presence of boric acid (Meijler et al., 2004)) is given as “induces bioluminescence”.
On to `C[C@@]1(O)OC[C@H](O)C1(O)O` [LsrB ligand], for which the light production entry in assay [1] (setting [9]) was “stimulate light production”; in assay [1] (borate-depleted AB medium), “No light was produced”. In assay [2], the “lsr expression” value is reported as “induces lsr expression”.
Consider `C[C@@]1(O)OC[C@H](O)C1(O)O` [R-THMF, (2R,4S)-2-methyl-2,3,3,4-tetrahydroxytetrahydrofuran], for which, in assay [7], the “binding to LsrB” value was “binds”.
